From US10450356B2, “PRAME derived peptides and immunogenic compositions comprising these” (Academisch Ziekenhuis Leiden H.O.D.N. LUMC, priority 2007, dated 2019)

Molecular target: T1, 20S proteasomes purified from a B-LCL cell line (immunoproteasomes) (Homo sapiens, UniProt P28062+P28065+P40306)
T1 construct: 20S proteasomes were purified from a B-LCL cell line; endogenous in cells; purified after Groettrup et al. 1995
Test: In vitro proteasome mediated cleavage analysis
Assay type: biochemical
Parameters: key to Intact in fragment / Intact Fragment: intact epitope found in digestion fragments: (+), present; (-), not present; key to Processing C-term: generation by proteasome-mediated digestion of fragments containing the correct C-terminus: (++) fragments present for >5%; (+) present for <5%; (-) no fragments containing the C-term. were found
Conditions: for Processing C-term: generation by proteasome-mediated digestion of fragments containing the correct C-terminus: 1 h digestion; for Intact Fragment: intact epitope found in digestion fragments: after 1 h digestion; for C-term. generation: generation of C-terminus of the epitope after 1 h digestion; for Intact in fragment: intact epitope found in digestion fragments after 1 h digestion
Protocol: 20S proteasomes were purified from a B-LCL cell line as described by Groettrup et al. (J. Biol. Chem. 270:23808-23815; 1995). This cell type is known to contain immunoproteasomes. High LMP2 and 7 content was confirmed by 2-D immuno-blotting. To assess kinetics, digestions were performed with different incubation periods. Peptides (27 mers, 20 μg) were incubated with 1 μg of purified proteasome at 37° C. for 1 h, 4 h and 24 h in 300 μl proteasome digestion buffer as described (Eggers, et al. 1995. J. Exp. Med. 182:1865). Trifluoroacetic acid was added to stop the digestion and samples were stored at −20° C. before mass spectrometric analysis.
Electrospray ionization mass spectrometry was performed on a hybrid quadrupole time-of-flight mass spectrometer, a Q-TOF (Micromass), equipped with an on-line nanoelectrospray interface with an approximate flow rate of 250 nL/min. Injections were done with a dedicated micro/nano HPLC autosampler, the FAMOS (LC Packings). Digestion solutions were diluted five times in water-methanol-acetic acid (95:5:1, v/v/v), and trapped on the precolumn (MCA-300-05-C8; LC Packings) in water-methanol-acetic acid (95:5:1, v/v/v). Washing of the precolumn was done for 3 min to remove the buffers present in the digests. Subsequently, the trapped analytes were eluted with a steep gradient going from 70% B to 90% B in 10 min, with a flow of 250 nl/min (A: water-methanol-acetic acid (95:5:1, v/v/v); B: water-methanol-acetic acid (10:90:1, v/v/v)). This low elution rate allows for a few additional MS/MS experiments if necessary during the same elution. Mass spectra were recorded from mass 50-2000 Da every second. The resolution allows direct determination of the monoisotopic mass, also from multiple charged ions. The peaks in the mass spectrum were searched in the digested precursor peptide using the Biolynx/proteins software (Micromass). The intensity of the peaks in the mass spectra was used to establish the relative amounts of peptides generated by proteasome digestion.

Row | Processing C-term: generation by proteasome-mediated digestion of fragments containing the correct C-terminus | Intact Fragment: intact epitope found in digestion fragments | C-term. generation | Intact in fragment | Structure (SMILES)
1 | - | - |  |  | CC(C)C[C@H](NC(=O)[C@H](Cc1c[nH]cn1)NC(=O)[C@H](CCC(N)=O)NC(=O)[C@H](CC(C)C)NC(=O)[C@H](CC(C)C)NC(=O)[C@H](CO)NC(=O)[C@H](CCC(N)=O)NC(=O)[C@H](CC(C)C)NC(=O)[C@H](C)N)C(=O)O
2 | - | - |  |  | CC[C@H](C)[C@H](NC(=O)[C@H](CC(C)C)NC(=O)[C@H](Cc1c[nH]cn1)NC(=O)[C@H](CCC(N)=O)NC(=O)[C@H](CC(C)C)NC(=O)[C@H](CC(C)C)NC(=O)[C@H](CO)NC(=O)[C@H](CCC(N)=O)NC(=O)[C@H](CC(C)C)NC(=O)[C@H](C)N)C(=O)O
3 | - | - |  |  | CC(C)C[C@H](NC(=O)[C@H](CCC(N)=O)NC(=O)[C@H](CC(=O)O)NC(=O)[C@H](CC(C)C)NC(=O)[C@H](CCCNC(=N)N)NC(=O)CNC(=O)[C@H](CCCNC(=N)N)NC(=O)[C@H](CC(C)C)NC(=O)[C@H](Cc1ccccc1)NC(=O)[C@@H](N)Cc1ccccc1)C(=O)O
4 | - | - |  |  | CC(C)C[C@H](NC(=O)[C@H](CC(C)C)NC(=O)[C@H](CCC(N)=O)NC(=O)[C@H](CC(=O)O)NC(=O)[C@H](CC(C)C)NC(=O)[C@H](CCCNC(=N)N)NC(=O)CNC(=O)[C@H](CCCNC(=N)N)NC(=O)[C@H](CC(C)C)NC(=O)[C@@H](N)Cc1ccccc1)C(=O)O
5 | + ((+) present for <5%) | - |  |  | CC(C)C[C@H](NC(=O)[C@@H](NC(=O)[C@H](Cc1c[nH]cn1)NC(=O)[C@@H](NC(=O)[C@H](CC(C)C)NC(=O)[C@H](CC(N)=O)NC(=O)[C@H](CO)NC(=O)[C@H](CC(C)C)NC(=O)CN)[C@@H](C)O)C(C)C)C(=O)O
6 | + ((+) present for <5%) | + | + (low abundant (+) present for <5%) | + | CC(C)C[C@H](NC(=O)[C@@H]1CCCN1C(=O)[C@H](CCC(=O)O)NC(=O)[C@@H]1CCCN1C(=O)[C@H](CO)NC(=O)[C@@H](NC(=O)[C@H](CC(=O)O)NC(=O)[C@@H](NC(=O)[C@@H](N)CC(C)C)[C@@H](C)O)C(C)C)C(=O)N[C@@H](CCC(N)=O)C(=O)O
7 | + ((+) present for <5%) | + | + (low abundant (+) present for <5%) | + | CC(C)C[C@H](NC(=O)[C@@H]1CCCN1C(=O)[C@H](CCC(=O)O)NC(=O)[C@@H]1CCCN1C(=O)[C@H](CO)NC(=O)[C@@H](NC(=O)[C@H](CC(=O)O)NC(=O)[C@@H](NC(=O)[C@@H](N)CC(C)C)[C@@H](C)O)C(C)C)C(=O)N[C@@H](CCC(N)=O)C(=O)N[C@@H](C)C(=O)O
8 | - | - |  |  | CSCC[C@H](N)C(=O)N[C@@H](CC(C)C)C(=O)N[C@H](C(=O)N[C@@H](CC(=O)O)C(=O)N[C@H](C(=O)N[C@@H](CO)C(=O)N1CCC[C@H]1C(=O)N[C@@H](CCC(=O)O)C(=O)N1CCC[C@H]1C(=O)N[C@@H](CC(C)C)C(=O)O)C(C)C)[C@@H](C)O
9 | - | - |  |  | CC(C)C[C@H](NC(=O)[C@@H](NC(=O)[C@H](Cc1c[nH]cn1)NC(=O)[C@@H](NC(=O)[C@H](CC(C)C)NC(=O)[C@@H](N)CC(N)=O)[C@@H](C)O)C(C)C)C(=O)N[C@@H](Cc1ccc(O)cc1)C(=O)N1CCC[C@H]1C(=O)N[C@H](C(=O)O)C(C)C
10 | - | - |  |  | CC[C@H](C)[C@H](NC(=O)[C@H](CO)NC(=O)CNC(=O)[C@H](Cc1c[nH]c2ccccc12)NC(=O)[C@H](CC(C)C)NC(=O)[C@@H](N)CCCNC(=N)N)C(=O)N[C@@H](CCC(N)=O)C(=O)N[C@@H](CO)C(=O)N[C@@H](CCCNC(=N)N)C(=O)O
11 | - | - |  |  | CC[C@H](C)[C@H](NC(=O)[C@H](Cc1ccc(O)cc1)NC(=O)[C@@H](N)CCCNC(=N)N)C(=O)N[C@@H](CO)C(=O)N[C@@H](CCSC)C(=O)N[C@@H](CO)C(=O)N[C@H](C(=O)N[C@@H](Cc1c[nH]c2ccccc12)C(=O)N[C@H](C(=O)N[C@@H](CO)C(=O)O)[C@@H](C)O)C(C)C
12 | ++ ((++) fragments present for >5%) | + | ++ (abundant (++) present for >5%) | + | CC[C@H](C)[C@H](NC(=O)[C@H](CO)NC(=O)[C@@H](NC(=O)[C@H](CO)NC(=O)[C@H](CC(N)=O)NC(=O)CNC(=O)[C@H](Cc1ccc(O)cc1)NC(=O)[C@H](Cc1ccccc1)NC(=O)[C@@H](N)CO)[C@@H](C)CC)C(=O)O
13 | - | - |  |  | CC[C@H](C)[C@H](NC(=O)[C@@H](N)CO)C(=O)N[C@@H](CO)C(=O)N[C@@H](C)C(=O)N[C@@H](CC(C)C)C(=O)N[C@@H](CCC(N)=O)C(=O)N[C@@H](CO)C(=O)N[C@@H](CC(C)C)C(=O)N[C@@H](CC(C)C)C(=O)O
14 | - | - |  |  | CSCC[C@H](NC(=O)[C@@H](NC(=O)CNC(=O)[C@H](CO)NC(=O)[C@H](CC(C)C)NC(=O)[C@@H](N)CO)C(C)C)C(=O)N[C@@H](CC(C)C)C(=O)N[C@H](C(=O)N[C@@H](CC(=O)O)C(=O)N[C@H](C(=O)O)C(C)C)[C@@H](C)O
15 | - | - |  |  | CC[C@H](C)[C@H](NC(=O)[C@H](CC(=O)O)NC(=O)[C@H](CCC(=O)O)NC(=O)[C@H](Cc1ccc(O)cc1)NC(=O)[C@@H](N)CO)C(=O)N[C@@H](Cc1c[nH]cn1)C(=O)NCC(=O)N[C@H](C(=O)N[C@@H](CC(C)C)C(=O)O)[C@@H](C)O
16 | - | - | ++ (abundant (++) present for >5%) | + | CC[C@H](C)[C@H](NC(=O)[C@H](CO)NC(=O)[C@H](CC(N)=O)NC(=O)CNC(=O)[C@H](Cc1ccc(O)cc1)NC(=O)[C@H](Cc1ccccc1)NC(=O)[C@H](CO)NC(=O)[C@H](CC(C)C)NC(=O)[C@@H](N)[C@@H](C)O)C(=O)O
